# In US8445510B2, “Fused bicyclic kinase inhibitors” (OSI Pharmaceuticals, LLC, priority 2011, dated 2013):
# How the values were obtained:
# MKN45 cells = experiment: MKN45 cell proliferation assay (CellTiter-Glo); assay type: cell-based; conditions: Homo sapiens, MKN-45, 72 h; MKN45 cell line; 3 days incubation; at least duplicate experiments; read-out: Prolif. IC50
# Karpas-299 cells = experiment: Karpas-299 cell proliferation assay (CellTiter-Glo); assay type: cell-based; conditions: Homo sapiens, 72 h; Karpas-299 cell line (NPM-ALK); 3 days incubation; at least duplicate experiments; read-out: Prolif. IC50
SMILES,IC50 (MKN45 cells) [nM],IC50 (Karpas-299 cells) [nM]
"Cc1nn(C[C@@H](O)CO)c(C)c1-c1cnc2[nH]cc([C@H](C)c3c(OC(F)F)ccc(F)c3Cl)c2c1 [Example 69, (2R)-3-[4-(3-{(1S)-1-[2-Chloro-6-(difluoromethoxy)-3-fluorophenyl]ethyl}-1H-pyrrolo[2,3-b]pyridin-5-yl)-3,5-dimethyl-1H-pyrazol-1-yl]propane-1,2-diol]",≤ 50,≤ 50
"Cc1c(-c2cnc3[nH]cc([C@H](C)c4c(OC(F)F)ccc(F)c4Cl)c3c2)cnn1C[C@H](O)CO [Example 70, (2S)-3-[4-(3-{(1S)-1-[2-Chloro-6-(difluoromethoxy)-3-fluorophenyl]ethyl}-1H-pyrrolo[2,3-b]pyridin-5-yl)-5-methyl-1H-pyrazol-1-yl]propane-1,2-diol]",≤ 50,≤ 50
"Cc1nn(C[C@H](O)CO)cc1-c1cnc2[nH]cc([C@H](C)c3c(OC(F)F)ccc(F)c3Cl)c2c1 [Example 71, (2S)-3-[4-(3-{(1S)-1-[2-Chloro-6-(difluoromethoxy)-3-fluorophenyl]ethyl}-1H-pyrrolo[2,3-b]pyridin-5-yl)-3-methyl-1H-pyrazol-1-yl]propane-1,2-diol]",≤ 50,≤ 50
"CCc1c(-c2cnc3[nH]cc([C@H](C)c4c(OC(F)F)ccc(F)c4Cl)c3c2)cnn1CC(C)(C)O [Example 72, 1-[4-(3-{(1S)-1-[2-Chloro-6-(difluoromethoxy)-3-fluorophenyl]ethyl}-1H-pyrrolo[2,3-b]pyridin-5-yl)-5-ethyl-1H-pyrazol-1-yl]-2-methylpropan-2-ol]",50 to 200,50 to 200
"CCc1nn(CC(C)(C)O)cc1-c1cnc2[nH]cc([C@H](C)c3c(OC(F)F)ccc(F)c3Cl)c2c1 [Example 73, 1-[4-(3-{(1S)-1-[2-Chloro-6-(difluoromethoxy)-3-fluorophenyl]ethyl}-1H-pyrrolo[2,3-b]pyridin-5-yl)-3-ethyl-1H-pyrazol-1-yl]-2-methylpropan-2-ol]",≤ 50,50 to 200
"Cc1c(-c2cnc3[nH]cc([C@H](C)c4c(OC(F)F)ccc(F)c4Cl)c3c2)cnn1[C@H]1CC[C@H](O)CC1 [Example 74, trans-4-[4-(3-{(1S)-1-[2-Chloro-6-(difluoromethoxy)-3-fluorophenyl]ethyl}-1H-pyrrolo[2,3-b]pyridin-5-yl)-5-methyl-1H-pyrazol-1-yl]cyclohexanol]",≤ 50,≤ 50
"Cc1c(-c2cnc3[nH]cc([C@H](C)c4c(OC(F)F)ccc(F)c4Cl)c3c2)cnn1[C@@H]1C[C@@H](O)[C@@H](O)C1 [Example 75, (1R,2S,4S)-4-[4-(3-{(1S)-1-[2-Chloro-6-(difluoromethoxy)-3-fluoro-phenyl]ethyl}-1H-pyrrolo[2,3-b]pyridin-5-yl)-5-methyl-1H-pyrazol-1-yl]cyclopentane-1,2-diol]",≤ 50,≤ 50
"Cc1c(-c2cnc3[nH]cc([C@H](C)c4c(OC(F)F)ccc(F)c4Cl)c3c2)cnn1[C@H]1CC[C@H](C(N)=O)CC1 [Example 76, trans-4-[4-(3-{(1S)-1-[2-Chloro-6-(difluoromethoxy)-3-fluorophenyl]ethyl}-1H-pyrrolo[2,3-b]pyridin-5-yl)-5-methyl-1H-pyrazol-1-yl]cyclohexanecarboxamide]",≤ 50,≤ 50
"CCc1nn([C@H]2CC[C@H](O)CC2)cc1-c1cnc2[nH]cc([C@H](C)c3c(OC(F)F)ccc(F)c3Cl)c2c1 [Example 77, trans-4-[4-(3-{(1S)-1-[2-Chloro-6-(difluoromethoxy)-3-fluorophenyl]ethyl}-1H-pyrrolo[2,3-b]pyridin-5-yl)-3-ethyl-1H-pyrazol-1-yl]cyclohexanol]",≤ 50,50 to 200
"CCc1c(-c2cnc3[nH]cc([C@H](C)c4c(OC(F)F)ccc(F)c4Cl)c3c2)cnn1[C@H]1CC[C@H](O)CC1 [Example 78, trans-4-[4-(3-{(1S)-1-[2-Chloro-6-(difluoromethoxy)-3-fluorophenyl]ethyl}-1H-pyrrolo[2,3-b]pyridin-5-yl)-5-ethyl-1H-pyrazol-1-yl]cyclohexanol]",≤ 50,≤ 50
"Cc1c(-c2cnc3[nH]cc([C@H](C)c4c(OC(F)F)ccc(F)c4Cl)c3c2)cnn1[C@H]1C[C@@](C)(O)C1 [Example 79, cis-3-[4-(3-{(1S)-1-[2-Chloro-6-(difluoromethoxy)-3-fluorophenyl]ethyl}-1H-pyrrolo[2,3-b]pyridin-5-yl)-5-methyl-1H-pyrazol-1-yl]-1-methylcyclobutanol]",≤ 50,50 to 200
"Cc1c(-c2cnc3[nH]cc([C@H](C)c4c(OC(F)F)ccc(F)c4Cl)c3c2)cnn1[C@H]1C[C@@H](O)C1 [Example 81, cis-3-[4-(3-{(1S)-1-[2-Chloro-6-(difluoromethoxy)-3-fluorophenyl]ethyl}-1H-pyrrolo[2,3-b]pyridin-5-yl)-5-methyl-1H-pyrazol-1-yl]cyclobutanol]",≤ 50,≤ 50
"C[C@H](c1c(OC(F)F)ccc(F)c1Cl)c1c[nH]c2ncc(-c3cnn([C@H]4CC[C@H](O)CC4)c3Cl)cc12 [Example 82, trans-4-[5-Chloro-4-(3-{(1S)-1-[2-chloro-6-(difluoromethoxy)-3-fluorophenyl]ethyl}-1H-pyrrolo[2,3-b]pyridin-5-yl)-1H-pyrazol-1-yl]cyclohexanol]",≤ 50,50 to 200
"C[C@H](c1c(OC(F)F)ccc(F)c1Cl)c1c[nH]c2ncc(-c3cnn([C@H]4CC[C@H](O)CC4)c3CO)cc12 [Example 83, trans-4-[4-(3-{(1S)-1-[2-Chloro-6-(difluoromethoxy)-3-fluorophenyl]ethyl}-1H-pyrrolo[2,3-b]pyridin-5-yl)-5-(hydroxymethyl)-1H-pyrazol-1-yl]cyclohexanol]",≤ 50,50 to 200
"C[C@H](c1c(OC(F)F)ccc(F)c1Cl)c1c[nH]c2ncc(-c3cnn([C@H]4CC[C@H](O)CC4)c3F)cc12 [Example 84, trans-4-[4-(3-{(1S)-1-[2-Chloro-6-(difluoromethoxy)-3-fluorophenyl]ethyl}-1H-pyrrolo[2,3-b]pyridin-5-yl)-5-fluoro-1H-pyrazol-1-yl]cyclohexanol]",≤ 50,50 to 200
"[2H]C([2H])([2H])c1c(-c2cnc3[nH]cc([C@H](C)c4c(OC(F)F)ccc(F)c4Cl)c3c2)cnn1[C@H]1CC[C@H](O)CC1 [Example 85, trans-4-[4-(3-{(1S)-1-[2-Chloro-6-(difluoromethoxy)-3-fluorophenyl]ethyl}-1H-pyrrolo[2,3-b]pyridin-5-yl)-5-(^2H3)methyl-1H-pyrazol-1-yl]cyclohexanol]",≤ 50,≤ 50
"Cc1c(-c2cnc3[nH]cc([C@H](C)c4c(OC(F)F)ccc(F)c4Cl)c3c2)cnn1C1CCNCC1 [Example 96, 3-{(1S)-1-[2-Chloro-6-(difluoromethoxy)-3-fluorophenyl]ethyl}-5-[5-methyl-1-(piperidin-4-yl)-1H-pyrazol-4-yl]-1H-pyrrolo[2,3-b]pyridine]",≤ 50,≤ 50
"CC(=O)N1CCC(n2ncc(-c3cnc4[nH]cc([C@H](C)c5c(OC(F)F)ccc(F)c5Cl)c4c3)c2C)CC1 [Example 97, 1-{4-[4-(3-{(1S)-1-[2-Chloro-6-(difluoromethoxy)-3-fluorophenyl]ethyl}-1H-pyrrolo[2,3-b]pyridin-5-yl)-5-methyl-1H-pyrazol-1-yl]piperidin-1-yl}ethanone]",≤ 50,≤ 50
"COc1ccc(F)c(Cl)c1[C@@H](C)c1c[nH]c2ncc(-c3cn([C@H]4CC[C@H](O)CC4)nc3OC)cc12 [Example 99, trans-4-(4-{3-[(1S)-1-(2-chloro-3-fluoro-6-methoxyphenyl)ethyl]-1H-pyrrolo[2,3-b]pyridin-5-yl}-3-methoxy-1H-pyrazol-1-yl)cyclohexanol]",≤ 50,50 to 200
"COc1nn([C@H]2CC[C@H](O)CC2)cc1-c1cnc2[nH]cc([C@H](C)c3c(OC(F)F)ccc(F)c3Cl)c2c1 [Example 100, trans-4-[4-(3-{(1S)-1-[2-chloro-6-(difluoromethoxy)-3-fluorophenyl]ethyl}-1H-pyrrolo[2,3-b]pyridin-5-yl)-3-methoxy-1H-pyrazol-1-yl]cyclohexanol]",≤ 50,50 to 200
"Cc1c(-c2cnc3[nH]cc([C@H](C)c4c(O)ccc(F)c4Cl)c3c2)cnn1[C@H]1CC[C@H](O)CC1 [Example 102, 3-Chloro-4-fluoro-2-[(1S)-1-{5-[1-(trans-4-hydroxycyclohexyl)-5-methyl-1H-pyrazol-4-yl]-1H-pyrrolo[2,3-b]pyridin-3-yl}ethyl]phenol]",≤ 50,50 to 200
"CCOc1ccc(F)c(Cl)c1[C@@H](C)c1c[nH]c2ncc(-c3cnn([C@H]4CC[C@H](O)CC4)c3C)cc12 [Example 103, trans-4-(4-{3-[(1S)-1-(2-Chloro-6-ethoxy-3-fluorophenyl)ethyl]-1H-pyrrolo[2,3-b]pyridin-5-yl}-5-methyl-1H-pyrazol-1-yl)cyclohexanol]",≤ 50,≤ 50
"Cc1c(-c2cnc3[nH]cc([C@H](C)c4c(OC(C)C)ccc(F)c4Cl)c3c2)cnn1[C@H]1CC[C@H](O)CC1 [Example 104, trans-4-[4-(3-{(1S)-1-[2-Chloro-3-fluoro-6-(propan-2-yloxy)phenyl]ethyl}-1H-pyrrolo[2,3-b]pyridin-5-yl)-5-methyl-1H-pyrazol-1-yl]cyclohexanol]",≤ 50,≤ 50
"Cc1c(-c2cnc3[nH]cc([C@H](C)c4c(OCC(F)(F)F)ccc(F)c4Cl)c3c2)cnn1[C@H]1CC[C@H](O)CC1 [Example 105, trans-4-[4-(3-{(1S)-1-[2-Chloro-3-fluoro-6-(2,2,2-trifluoroethoxy)-phenyl]ethyl}-1H-pyrrolo[2,3-b]pyridin-5-yl)-5-methyl-1H-pyrazol-1-yl]cyclohexanol]",≤ 50,≤ 50
"COc1cc(OC)c(Cl)c([C@@H](C)c2c[nH]c3ncc(-c4cnn([C@H]5CC[C@H](O)CC5)c4C)cc23)c1Cl [Example 106, trans-4-(4-{3-[(1S)-1-(2,6-Dichloro-3,5-dimethoxyphenyl)ethyl]-1H-pyrrolo[2,3-b]pyridin-5-yl}-5-methyl-1H-pyrazol-1-yl)cyclohexanol]",≤ 50,200 to 1000
